Measurements: US12410157B2, “Compound useful as toll-like receptor 7 activation inhibitor” (TOYAMA PREFECTURAL UNIVERSITY, priority 2020, dated 2025)

Biological target: T1, mouse TLR7 (Mus musculus, UniProt P58681)
T1 construct: expressed in transfected cells; host or cells: Ba/F3 cells (provided by Prof. Kensuke Miyake, University of Tokyo)
T1 sequence (P58681 27-1050): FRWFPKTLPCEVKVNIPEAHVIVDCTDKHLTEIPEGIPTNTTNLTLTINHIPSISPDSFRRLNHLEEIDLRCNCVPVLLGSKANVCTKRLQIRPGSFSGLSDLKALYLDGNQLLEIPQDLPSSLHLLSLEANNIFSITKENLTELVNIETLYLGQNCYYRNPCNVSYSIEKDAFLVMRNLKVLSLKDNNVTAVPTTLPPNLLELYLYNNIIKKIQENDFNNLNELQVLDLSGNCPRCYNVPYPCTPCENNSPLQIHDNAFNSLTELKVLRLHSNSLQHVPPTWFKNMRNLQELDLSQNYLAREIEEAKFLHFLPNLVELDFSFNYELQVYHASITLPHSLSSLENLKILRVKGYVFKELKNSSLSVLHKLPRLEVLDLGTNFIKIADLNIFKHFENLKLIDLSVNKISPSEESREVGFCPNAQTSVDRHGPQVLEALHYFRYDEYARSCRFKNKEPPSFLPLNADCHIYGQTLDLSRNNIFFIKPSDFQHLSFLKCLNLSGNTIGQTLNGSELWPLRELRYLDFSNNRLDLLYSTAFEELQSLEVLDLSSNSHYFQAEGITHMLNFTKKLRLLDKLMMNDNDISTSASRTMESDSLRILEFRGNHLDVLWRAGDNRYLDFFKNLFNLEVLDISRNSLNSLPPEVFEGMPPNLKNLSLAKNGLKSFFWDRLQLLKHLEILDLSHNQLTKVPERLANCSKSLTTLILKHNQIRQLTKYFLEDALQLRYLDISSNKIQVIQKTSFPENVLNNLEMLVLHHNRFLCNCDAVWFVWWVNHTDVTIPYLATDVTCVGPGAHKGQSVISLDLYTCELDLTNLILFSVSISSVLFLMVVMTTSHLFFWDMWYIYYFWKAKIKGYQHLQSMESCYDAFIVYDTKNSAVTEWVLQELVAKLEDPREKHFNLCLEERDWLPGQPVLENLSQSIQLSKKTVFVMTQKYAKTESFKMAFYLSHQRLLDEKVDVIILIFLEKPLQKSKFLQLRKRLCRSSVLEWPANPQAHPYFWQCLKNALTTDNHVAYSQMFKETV
Test: Inhibition of TLR7 activation in mouse TLR7-expressing NF-κB-GFP reporter Ba/F3 cells
Format: cell-based
Settings: Example 5, Table 5; method of Example 2; read-out: IC50
Source text: Mouse TLR7-expressing reporter cells (Ba/F3 cells) were used to evaluate inhibition of TLR7 activation in each derivative and CB-7. These cells were provided by Professor Kensuke Miyake (Department of Infection Genetics, Institute of Medical Science, University of Tokyo). These cells have been transfected with a reporter gene that connects GFP gene downstream of the promoter region of NF-κB. Therefore, the expression of GFP is enhanced by the addition of a ligand for TLR7 expressed by the cells. The fluorescence intensity of GFP was attenuated by the addition of each derivative, and the inhibition of TLR7 activation by each derivative was evaluated as an indicator.
Loxoribine (Alexis Biochemicals) was used as the ligand for mouse TLR7. Gardiquimod (Invivogen) was used as the ligand for human TLR7.
Ba/F3 cells cultured in RPMI 1640 medium containing 10% (v/v) fetal calf serum (FCS), 50 U/mL penicillin, 50 μg/mL streptomycin, 2 mM L-glutamine, […] 2-mercaptoethanol, 1 ng/mL interleukin-3 were aliquoted into 96-well plates so that the number of cells per well was 1.0×10^5 cells/100 μL. 50 μL of each derivative or CB-7, prepared to final concentrations of 1, 5, 10, 25, 50, and 100 µM, was added to each well. 96-well plates were incubated at 37° C. for 30 minutes in the presence of 5% CO2. Next, 250 μg/mL Roxoribin was added to each well and incubated for 18 hours. At the end of incubation, cells were washed with PBS (FACS buffer) containing 2.5% (v/v) FCS and suspended in 200 μL of FACS buffer containing 25 μg/mL […] for each cell. GFP fluorescence intensities of the cells were analyzed by flow cytometry. Flow cytometry measurement was performed on a FACSCanto™ II (Becton Dickinson) and data were analyzed with FlowJo software (Tree Star). The MFI (%) upon stimulation with roxoribin in the presence of […] derivatives or CB-7 was calculated using the MFI upon stimulation with roxoribin alone as 100%, and then IC50 (chemical compound concentration that inhibits activity by 50%) was calculated by logistic regression analysis.
The evaluation of the TLR7 activation inhibition by B2-24-4-5A·HCOOH was performed by the method described in Example 2. CB-7 and B2-24-4·HCl were used as controls.

With `C=C(C)[C@@H]1CC[C@]2(COC(=O)C2)C[C@H]1c1ccc(CN2CCNCC2)cc1` [B2-24-4-5A·HCOOH] the IC50 was 167 nM.
